The subject of series [1] is spontaneously hypertensive rats (SHR). Briefly: Antihypertensive activity in vivo: SBP of SHR by tail-cuff method after intragastric administration. Also on record: species or system rat. As for the experimental part:
Spontaneously hypertensive rats (SHR) with systolic blood pressure (SBP) between 170 and 190 mmHg and original strain Wistar Kyoto rats (WKR) with SBP between 100 and 125 mmHg were purchased from Harlan, USA (Indianapolis, USA). All rats were treated in accordance with Kyung Hee University guidelines for the care and use of laboratory animals. The animals were individually housed in stainless steel cages and adapted to 23 ± 1°C and humidity of 55 ± 5% under a 12 h light-dark cycle. The 12-week-old rats were fed a pelletized commercial chow diet for a period of 1 week after arrival and then randomly divided into five groups: untreated SHR control group (n = 3); normal WKR control group (n = 3); oyster hydrolysate-treated SHR group (100 mg/kg body weight, n = 3); sardine hydrolysate-treated SHR group (positive control, 100 mg/kg body weight, n = 3); and Captopril-treated SHR group (positive control, ACE inhibitor; 8 mg/kg body weight, n = 3). After intragastric administration of the samples using Sonde, SBP of the rats was measured by a Coda noninvasive blood pressure system (Kent Scientific Corporation, Baltimore, USA) using the tail-cuff method after prewarming for 30 min in an environmental chamber of 32°C at 0, 3, 6, 9, 12, and 24 h. Subsequent measurement of blood pressure was expressed as a percentage of that at the initial time.

Series [2] is described as follows: in vitro. The class given is cell-based. The settings on record: human. As for the experimental part:
The ACE inhibitory activities of the synthetic peptides were measured, and the cell toxicity was evaluated by cell viability testing on the hepatocyte cell line HepG2. HepG2 cells were cultured in MEM medium containing 10% fetal bovine serum. Ninety-six well plates containing 1 × 10^4 cells per well were incubated at 35°C for 24 h under 95% humidity and 5% CO2. After incubation, the synthetic peptides were added (final concentration, 200 μg/mL) and cells were incubated under the same conditions for an additional 24 h. Cell growth was assessed with the CellTiter 96 Aqueous One Solution Cell Proliferation Assay kit (Promega, Madison, WI, USA) and absorbance was determined with a microplate reader (Perkin Elmer 1420, VICTOR X Multilabel Plate readers, Waltham, MA, USA) at 490 nm. Cell viability was calculated as the percentage of absorbance of the synthetic peptide-treated groups compared with that of the untreated group (100% viability).

Series [3] deals with Angiotensin I-converting enzyme (UniProt P12822).
UniProt P12822, sequence (P12822 34-1260): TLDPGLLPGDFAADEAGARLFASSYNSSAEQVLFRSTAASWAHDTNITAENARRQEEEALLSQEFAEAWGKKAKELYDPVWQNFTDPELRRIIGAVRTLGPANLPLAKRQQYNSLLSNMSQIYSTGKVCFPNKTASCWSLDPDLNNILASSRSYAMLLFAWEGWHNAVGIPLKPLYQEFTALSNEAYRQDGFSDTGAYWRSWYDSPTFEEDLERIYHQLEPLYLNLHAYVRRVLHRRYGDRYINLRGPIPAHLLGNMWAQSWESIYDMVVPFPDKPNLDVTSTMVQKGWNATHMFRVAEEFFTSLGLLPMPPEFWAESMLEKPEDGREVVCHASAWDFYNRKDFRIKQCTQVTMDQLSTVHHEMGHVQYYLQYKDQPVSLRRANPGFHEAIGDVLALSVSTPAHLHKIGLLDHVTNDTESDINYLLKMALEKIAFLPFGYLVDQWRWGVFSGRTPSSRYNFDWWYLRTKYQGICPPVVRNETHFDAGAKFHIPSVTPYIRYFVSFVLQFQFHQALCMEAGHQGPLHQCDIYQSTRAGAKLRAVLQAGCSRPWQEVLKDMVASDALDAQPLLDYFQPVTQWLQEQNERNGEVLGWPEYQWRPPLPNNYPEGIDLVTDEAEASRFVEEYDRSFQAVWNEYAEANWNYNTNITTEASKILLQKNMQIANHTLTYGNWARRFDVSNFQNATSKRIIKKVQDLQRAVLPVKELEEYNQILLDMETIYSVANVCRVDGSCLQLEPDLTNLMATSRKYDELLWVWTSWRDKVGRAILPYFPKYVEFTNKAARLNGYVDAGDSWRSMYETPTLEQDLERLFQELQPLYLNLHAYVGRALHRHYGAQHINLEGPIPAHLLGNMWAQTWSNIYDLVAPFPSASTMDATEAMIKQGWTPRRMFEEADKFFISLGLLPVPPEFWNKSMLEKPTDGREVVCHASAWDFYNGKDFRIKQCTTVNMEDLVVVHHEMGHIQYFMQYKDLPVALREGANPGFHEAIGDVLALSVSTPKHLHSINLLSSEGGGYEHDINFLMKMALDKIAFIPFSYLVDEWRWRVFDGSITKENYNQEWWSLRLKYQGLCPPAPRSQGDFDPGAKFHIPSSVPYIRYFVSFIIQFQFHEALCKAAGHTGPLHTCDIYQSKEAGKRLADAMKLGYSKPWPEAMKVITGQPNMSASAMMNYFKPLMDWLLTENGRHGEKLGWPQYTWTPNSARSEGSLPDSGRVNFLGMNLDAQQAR

Take `C[C@H](CS)C(=O)N1CCC[C@H]1C(=O)O` [Captopril]: in series [1] (8 mg/kg intragastric, 12 h after administration), the “SBP at maximum decrease, as % of the initial SBP” value is listed as 85.3 ± 4.5%. Besides, the “effect on SBP of SHR (in words)” value in series [1] (oral administration, oyster and sardine hydrolysate 100 mg/kg, Captopril 8 mg/kg) was “not significant”.

For the compound `NC(=O)C[C@H](NC(=O)[C@H](Cc1ccc(O)cc1)NC(=O)[C@@H](N)Cc1ccccc1)C(=O)O` [FYN], in series [2], the viability at 24 h, 200 μg/mL was found to be 110 ± 3%.

In the case of `NCCCC[C@H](N)C(=O)N[C@@H](Cc1ccc(O)cc1)C(=O)O` [KY], the viability at 24 h, 200 μg/mL in series [2] was 118 ± 7%.

Take `C[C@H](NC(=O)[C@@H](N)[C@@H](C)O)C(=O)N[C@@H](Cc1ccc(O)cc1)C(=O)O` [TAY]: the viability at 24 h, 200 μg/mL in series [2] stood at 105 ± 1.9%.

On to `CC(C)[C@H](N)C(=O)N[C@@H](CCCCN)C(=O)O` [VK], for which, in series [2], the viability at 24 h, 200 μg/mL came to 118 ± 15.1%.

Take FYN (peptide): the IC50 of ACE inhibition (enzyme activity: hippuric acid released from HHL, by HPLC) in series [3] came out at 68.2 µM.

KY (peptide): the IC50 of ACE inhibition (enzyme activity: hippuric acid released from HHL, by HPLC) in series [3] worked out at 51.5 µM.

TAY (peptide): in series [3], the IC50 of ACE inhibition (enzyme activity: hippuric acid released from HHL, by HPLC) came out at 16.7 µM.

Regarding VK (peptide), in series [3], the IC50 of ACE inhibition (enzyme activity: hippuric acid released from HHL, by HPLC) is 29 µM.

On to YA (peptide), for which, in series [3], the IC50 of ACE inhibition (enzyme activity: hippuric acid released from HHL, by HPLC) came to 93.9 µM.

A word on the viability: it is a read-out of living cells in per cent, often relative to untreated cells.

For the origin of these results see article PMC4130196, “Angiotensin I-Converting Enzyme Inhibitor Derived from Cross-Linked Oyster Protein” (BioMed Research International, 2014).
